Reference: publication PMC5108082, “Pharmacokinetics, toxicity, and cytochrome P450 modulatory activity of plumbagin” (BMC Pharmacology & Toxicology, 2016)

Tests used:
in vivo = conditions: male, Wistar, rat, po, 100 mg/kg
Description: Pharmacokinetic investigation was performed in 4 male Wistar rats (weighing 200–350 g) following a single oral dose of 100 mg/kg body weight plumbagin (1 mL). The control group received 20 % Tween-80 (1 mL). Blood samples (500 μL each) were collected from the tail vein of each rat at 0, 1, 2, 3, 5, 8, 24, 48, and 72 h after dosing. Plasma was separated from whole blood samples through centrifugation at 3000 × g for 10 min.
Concentrations of plumbagin in plasma and urine samples collected from all animals were measured using liquid chromatographic-mass spectrometry (LC-MS/MS) according to the previously described method with modifications. The limits of quantification (LOQ) and detection (LOD) for plumbagin were 5 and 2 ng/mL plasma, respectively. Recovery of the compound in plasma after sample preparation procedure was between 82 and 92 %. The assay intra- and inter-day coefficients of variation (% CV) were 0.7–4.7 % and 3.9–8.3 %, respectively. In brief, plasma sample (100 μL) was mixed with 10 ng/mL honokiol (5 μL) and ethyl acetate (1 mL) and centrifuged at 12,000 × g for 15 min. The upper layer was transferred to a new tube and evaporated to dryness under nitrogen flow. The dried residue was reconstituted with 100 μL of the mobile phase and a 5 μL aliquot was injected onto the LC–MS/MS. The samples were collected from the metabolic cages at 24, 48, 72, 96, and 120 h. All were centrifuged at 1500 × g for 10 min and the supernatant (100 μL) was extracted with ethyl acetate (1 mL). The extract was dried and the residue was reconstituted with 100 μL of the mobile phase and a 5 μL aliquot was injected onto the LC–MS/MS.
The LC-MS/MS system used consists of Agilent 1100 Separation Module (Agilent Technologies, CA, USA) solvent and sample delivery, Av QTRAP 5500 Triple Quadrupole Mass Spectrometer (AB Sciex, Foster City, CA, USA) equipped with CID, and Multiple Reactions Monitoring (MRM). Mass spectrometric analysis was performed in the negative-ion mode (ESI). The following parameters of the turbo ion spray were used: ion spray voltage = −4500 V; the ion source gas 1 (GS1), gas 2 (GS2), curtain gas (CUR) and collision gas (CAD) were 50, 60, 25 and 5, respectively; and the desolvation gas (nitrogen) heated to 500 °C. Separation was performed using Hypersil gold reversed-phase C18 column (50 mm × 4.6 mm i.d., 5 μM: Thermo Scientific, Fremont, CA, USA) with the mobile phase consisting of a mixture of (A) water containing 0.1 % formic acid and (B) 100 % methanol, running with gradient mode at the flow rate of 0.6 mL/min at 25 °C (Table 1). On the basic of the full-scan mass spectra of each analyze, the most abundant ions were selected and the mass spectrometer was set to monitor the transitions of the precursors to the product ions as follows: m/z 187– >159 for plumbagin, and 265– >224 for honokiol (internal standard). The system was controlled by Analyst^TM software (AB Sciex, Foster City, CA, USA).
Pharmacokinetic parameters were determined using a non-compartmental analysis using WinNonLin^TM software (version 6.3, Pharsights, Certara, USA). Concentrations of drugs lower than the limit of quantification (LOQ) were expressed as zero (undetectable). The Cmax (maximum concentration); tmax (time of maximum concentration) were determined by direct inspection of the plasma concentration–time data. […] The extrapolated AUC from the last sampling time to infinity was estimated from Ct/elimination rate constant (λz). λz was calculated from at least five concentration–time points of elimination phase. Apparent oral clearance (CL/F) was calculated as dose/AUC0−∞. Volume of distribution (Vz/F) was calculated as CL/F/z, and the terminal half-life (t1/2z) was calculated as 0.693/λz. Mean residence time (MRT) was calculated from the ratio of AUMC0-α)/AUC0−∞.

CYP3A4 = conditions: cited from earlier work
[1] = test system: human colon epithelial cell monolayer Caco-2; conditions: cited from earlier work

CC1=CC(=O)c2c(O)cccc2C1=O [plumbagin, 5-hydroxy-2-methyl-1,4-naphthoquinone]
AUC(0-inf) (in vivo): 6710 ng·h/mL | AUC(0-t) (in vivo): 6510 ng·h/mL | CL/F (in vivo): 250 mL/min/kg | Cmax (in vivo): 460 ng/mL | Tmax (in vivo): 5 h | Vd/F (in vivo): 220 L/kg | t1/2 (elimination half-life) (in vivo): 9.63 (3.04) h | time up to which detected in systemic circulation (in vivo): 48 h | time up to which detected in urine (complete elimination in urine) (in vivo): 96 h | plumbagin excreted in urine (in vivo; 72 h): 15 (9) μg | half-life (in vivo; t1/2 (elimination half-life)): ~9.6 h | IC50 (CYP3A4): 2370 nM | influence of efflux protein on permeability ([1]; Caco-2): no influence of efflux protein | permeability ([1]; Caco-2): moderate | transport mechanism [1]: passive transport
